Test results: BigSolDB 2.1

Cc1cccc(C(=O)O)c1N
solubility (mole fraction)
Conditions	278.15 K	283.15 K	288.15 K	293.15 K	298.15 K	303.15 K	308.15 K	313.15 K	318.15 K
in 1,4-dioxane	–	–	0.108	0.117	0.127	0.137	0.148	0.159	0.171
in 2-butanone	0.0646	0.0721	0.0792	0.0872	0.0953	0.104	0.114	0.124	0.134
in acetone	0.0745	0.0829	0.0918	0.101	0.111	0.121	0.132	0.143	0.154
in acetonitrile	0.0227	0.0275	0.0329	0.039	0.0461	0.054	0.0628	0.0727	0.0834
in cyclohexane	–	8.89e-05	0.000115	0.000153	0.000204	0.00027	0.00035	0.000454	0.000578
in ethanol	0.0176	0.0208	0.0244	0.0286	0.0333	0.0385	0.0444	0.0509	0.0582
in ethyl acetate	0.0294	0.0345	0.0405	0.0469	0.054	0.0619	0.0704	0.0803	0.0907
in isopropanol	0.00876	0.0109	0.0138	0.017	0.0208	0.0253	0.0303	0.036	0.0427
in methanol	0.02	0.0235	0.0273	0.0317	0.0367	0.0423	0.0483	0.055	0.0624
in n-butanol	0.0117	0.0144	0.0176	0.0212	0.0254	0.0302	0.0357	0.0422	0.0498
in n-propanol	0.0151	0.0178	0.0212	0.0251	0.0293	0.0344	0.04	0.046	0.0532
in toluene	0.0011	0.00145	0.00184	0.00235	0.00298	0.00382	0.0049	0.00619	0.00797
